Assay results taken from patent US8076311B2, “Compositions and methods for modulating the immune system” (priority 2006, dated 2011).
Like-named read-outs stand apart in the source and are kept apart here.

Key:
T lymphocyte [1] = details: patients receiving immune stimulating agents; cited from earlier work
T lymphocyte [2] = test: Patient case study: T lymphocyte competence (proliferation in response to PHA); type: in vivo, human
Procedure: (§1) The patient was treated with a Formula 2 compound and blood cell parameters were monitored. The sample size for this experiment was 1, consisting of subject 1. Subject 1 is an immune comprised patient with multiple recurrent infectious bouts requiring hospitalization while in a nearly moribund condition began treatment with the experimental drug Isopentyl adenosine (IPA).
(§2) The subject initially received IPA (see FIGS. 1 and 2). T and B lymphocyte competence as measured by the ability of these cells to proliferate in response to specific stimulating mitogens (PHA for T cells and PWM for B cells) which was monitored on a weekly basis until death. As shown in FIGS. 1 and 2 respectively the subject's T and B lymphocyte competence on was well below normal.

B lymphocyte = test: Patient case study: B lymphocyte competence (proliferation in response to PWM); type: in vivo, human
Procedure: as §1, §2

immune comprised patient = test: Patient case study: clinical status; type: in vivo, human
Procedure: The patient was treated with a Formula 2 compound and blood cell parameters were monitored. The sample size for this experiment was 1, consisting of subject 1. Subject 1 is an immune comprised patient with multiple recurrent infectious bouts requiring hospitalization while in a nearly moribund condition began treatment with the experimental drug Isopentyl adenosine (IPA). The subject had been hospitalized with avert life-threatening infections. The subject's total white blood cell counts were in the range of 2200-4900 for the three month period preceding hospitalization. […] The patient was hospitalized from depression, exhaustion, bronchial infection, severe diarrhea, severe weight loss and complete loss of appetite and spiked fever. The patient's weight was 98 pounds.

lipid peroxidation = details: group III; day 15; liver; p<−0.001
Procedure: The liver of the sacrificed animals were excised quickly washed in ice-cold saline and kept at −70° C. till the day of analysis. On the day of analysis 25% homogenate was pre-pared in tris-HCl buffer (0.1 M, pH 7.4). The homogenate was centrifuged at 12000 rpm for 30 minutes and supernatant was used to determine the tissue lipid peroxide levels (LPO) using the TBA method of Okhawa et al.

GSH = details: oltipraz continuously administered group; 15th day; p<0.001
Procedure: (§3) Thirty six animals were divided into four groups of nine animals each. […] Group 4 was treated as normal animals without any treatment. On days 5, 10 and 15 after irradiation (750) rads three animals from each group was sacrificed. Blood was collected to heparinized tubes, and plasma was removed and following parameters were assayed in the blood. Activity of the enzyme SOD was measured by NBT reduction method of McCord and Fridovich. CAT activity was estimated by the method of Aebi by measuring the rate of decomposition of hydrogen peroxide at 240 nm. Level of GSH was assayed by the method of Moron et al based on the reaction with DTBN. Assay of GPX followed the method of Hafeman based on the degradation of H2O2 in the presence of GSH. The method of Habig was followed to assay the activity of GST based on the rate of increase in the conjugate formation between GSH and CDNB.

CAT = details: continuous administration; maximum on tenth day after irradiation
Procedure: as §3

GPX = details: group III; 15th day after irradiation; p<−0.001
Procedure: as §3

GST = details: group III; 15th day; p<−0.01
Procedure: as §3

SOD = details: continuous administration; maximum value on the 15th day after irradiation
Procedure: as §3

irradiated animals = test: Effect of oltipraz on haematological parameters and body weight of irradiated animals; details: for Body weight on day 6: 750 rads, p>0.05
bone marrow cells = details: after the 15th day of post-irradiation
Procedure: as §3
The femurs of three above animals were dissected out and bone marrow cells were flushed into phosphate buffered saline (pH 7.4) containing 2% foetal calf serum. The cells were washed and bone marrow viability was determined by the method of Sredni. The results were expressed as number of live bone marrow cells ×10(6)/femur.

[3] = resumed for one week with one-half the recommended dosage
[4] = within 7 days of drug therapy initiation
[5] = within a month of resuming therapy at recommended dose levels
[6] = first period of constant oral doses of IPA

c1ccc([C@H]2CN3CCSC3=N2)cc1 [Levamisole]
Immune recovery capacity compared with IPA (T lymphocyte [1]): slower and less dramatic

CC(C)=CCNc1ncnc2c1ncn2[C@@H]1O[C@H](CO)[C@@H](O)[C@H]1O [IPA, N6-(Δ2-isopentenyl) adenosine]
T lymphocyte competence (T lymphocyte [2]; dosage greatly (>3×) increased): depression suggesting immunotoxicity
T lymphocyte competence (T lymphocyte [2]; [3]): spiked dramatically to above the lower limit of the normal range
Time to major rapid recovery of T lymphocyte competence after initiation of therapy (T lymphocyte [2]; subject 1, oral IPA): less than 7 days
Level of T lymphocyte competence (T lymphocyte [2]; [4]): above the lower limits-of the normal donor's reactivity
T lymphocyte competence (T lymphocyte [2]; [5]): well within the range of normal donor reactivity
T lymphocyte competence (T lymphocyte [2]; within two weeks of resuming therapy at recommended dose levels): nearly within the normal range
B lymphocyte activity (B lymphocyte; [3]): slight rise
Time to major rapid recovery of B lymphocyte competence after initiation of therapy (B lymphocyte; subject 1, oral IPA): less than 7 days
Level of B lymphocyte competence (B lymphocyte; [4]): above the lower limits-of the normal donor's reactivity
B lymphocyte competence (B lymphocyte; [5]): somewhat below lower normal limits
Fever and diarrhea (immune comprised patient; [6]): completely subsided
Weight gain (immune comprised patient; [6]): 15 pound
Life after initiation of therapy (immune comprised patient; patient terminally moribund at start): 5 months

Cc1c(-c2cnccn2)ssc1=S [oltipraz]
Lipid peroxidation (lipid peroxidation): 2.12±0.21 nano-moles of MDA formed/mg of protein
Levels of GSH compared with radiation alone treated group (GSH): increased almost three times
CAT activity (CAT): enhanced
GPX activity (GPX): 1927.87±136.06 U/L of haemolysate
GST activity (GST): 2.38±0.25 nano-moles of CDNB-GSH conjugate formed
SOD activity (SOD): enhanced
Body weight on day 6 (irradiated animals; group II: oltipraz 50 mgs/Kg ten days prior to irradiation): 21.02±4.14
WBC at later days after irradiation (irradiated animals; group III (oltipraz continuously administered) compared with group I (radiation alone) and group II): significantly elevated WBC
Body weight on day 6 (irradiated animals; group III: oltipraz 50 mgs/Kg ten days prior to and fifteen days after irradiation): 21.10±2.51
Differential count (irradiated animals; irradiated mice, oltipraz groups): did not show any significant variation
Total leukocyte count (irradiated animals; oltipraz 50 mgs/Kg, irradiated mice, versus radiation alone): increase the count
Hemoglobin level (irradiated animals; oltipraz continuously administered group, day 6): 12.42±2.76
Bone marrow viability (bone marrow cells; group II (oltipraz pre treated)): 5.82 ×10^6 cells/femur
Bone marrow viability (bone marrow cells; group III (oltipraz continuously administered)): 14.32 ×10^6 cells/femur
